Results from ChEMBL document CHEMBL1201862, “PubChem BioAssay data set” (2004).
Calls of active or inactive are those of the source.

Key:
[1] = molecular target: T1, Acyl-homoserine lactone acylase PvdQ (Pseudomonas aeruginosa (strain LESB58), UniProt Q9I194); experiment: P. aeruginosa PvdQ acylase inhibitors, dose response, biochemical, fluorescence, plate reader and imaging, cherry-picks (AID 493231)
T1 sequence (Q9I194 whole entry): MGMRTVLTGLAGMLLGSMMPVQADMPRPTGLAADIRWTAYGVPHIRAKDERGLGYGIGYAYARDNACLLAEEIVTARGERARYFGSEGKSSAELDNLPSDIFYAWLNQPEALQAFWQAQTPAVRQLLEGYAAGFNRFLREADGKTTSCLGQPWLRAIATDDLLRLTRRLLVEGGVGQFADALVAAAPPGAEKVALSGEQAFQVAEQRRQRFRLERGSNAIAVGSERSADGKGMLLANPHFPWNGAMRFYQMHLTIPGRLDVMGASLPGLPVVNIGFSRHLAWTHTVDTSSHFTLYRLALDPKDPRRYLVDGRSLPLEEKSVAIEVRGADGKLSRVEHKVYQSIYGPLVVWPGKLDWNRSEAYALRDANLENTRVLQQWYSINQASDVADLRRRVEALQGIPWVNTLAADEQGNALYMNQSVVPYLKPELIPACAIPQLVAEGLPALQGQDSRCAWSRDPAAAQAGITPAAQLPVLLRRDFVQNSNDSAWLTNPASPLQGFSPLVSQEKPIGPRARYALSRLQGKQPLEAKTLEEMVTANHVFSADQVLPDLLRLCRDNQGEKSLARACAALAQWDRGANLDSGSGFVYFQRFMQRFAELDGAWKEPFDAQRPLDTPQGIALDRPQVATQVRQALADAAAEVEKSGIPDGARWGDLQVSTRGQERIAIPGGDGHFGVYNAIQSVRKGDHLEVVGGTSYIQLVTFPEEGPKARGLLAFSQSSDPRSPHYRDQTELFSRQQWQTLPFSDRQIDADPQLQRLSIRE

[2] = molecular target: Heat shock protein HSP 90-alpha (Homo sapiens, UniProt P07900); experiment: Luminescence-based dose response biochemical high throughput screening assay for inhibitors of the Heat Shock Protein 90 (HSP90). [Related pubchem assays: 1831 (Summary AID.), 1846 (Confirmation screen.), 1789 (Primary screen.)]
[3] = molecular target: T2, Zinc finger protein mex-5 (Caenorhabditis elegans, UniProt Q9XUB2); experiment: MEX-5/TCR-2 RNA interaction inhibitors, dose response, biochemical, C. elegans, fluorescence polarization (AID 1960)
T2 sequence (Q9XUB2 whole entry): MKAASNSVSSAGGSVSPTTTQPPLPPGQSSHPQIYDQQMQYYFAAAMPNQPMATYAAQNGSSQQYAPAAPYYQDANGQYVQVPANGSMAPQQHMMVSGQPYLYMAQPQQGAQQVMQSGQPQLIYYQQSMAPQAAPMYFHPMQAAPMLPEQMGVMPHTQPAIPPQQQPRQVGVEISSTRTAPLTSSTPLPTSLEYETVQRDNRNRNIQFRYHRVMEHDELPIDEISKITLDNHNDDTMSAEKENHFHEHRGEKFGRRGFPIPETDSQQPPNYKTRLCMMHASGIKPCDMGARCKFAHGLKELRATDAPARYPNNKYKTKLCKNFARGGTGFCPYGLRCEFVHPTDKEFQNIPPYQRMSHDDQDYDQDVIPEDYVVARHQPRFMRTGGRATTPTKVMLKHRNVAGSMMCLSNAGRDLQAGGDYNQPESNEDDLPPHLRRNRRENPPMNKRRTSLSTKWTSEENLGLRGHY

[4] = molecular target: T3, RNA-binding protein pos-1 (Caenorhabditis elegans, UniProt G5EF15); experiment: inhibitors of POS-1/mex-3 RNA binding, dose response, biochemical, fluorescence polarization (AID 1964);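 note: purified POS-1 fused to maltose binding protein made in E. coli; potency of compounds blocking POS-1 binding to fluorescent RNA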
T3 sequence (G5EF15 whole entry): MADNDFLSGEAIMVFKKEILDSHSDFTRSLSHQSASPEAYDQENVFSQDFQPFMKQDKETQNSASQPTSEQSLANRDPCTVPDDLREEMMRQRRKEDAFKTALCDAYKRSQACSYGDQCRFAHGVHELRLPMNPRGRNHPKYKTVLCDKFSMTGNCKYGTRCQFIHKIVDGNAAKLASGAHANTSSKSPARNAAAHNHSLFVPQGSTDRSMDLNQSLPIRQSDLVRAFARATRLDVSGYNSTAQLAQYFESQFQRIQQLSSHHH

Bcl-2-like protein 10 = molecular target: T4, Bcl-2-like protein 10 (Homo sapiens, UniProt Q9HD36); experiment: displacers of TR3 peptide from Bcl-B, primary screen, selectivity assay for Bfl-1 inhibitor project, biochemical, fluorescence polarization, FITC-TR3 peptide (AID 748);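 note: fluorescence polarization from a fluorescein-labelled TR3 peptide binding purified Bcl-B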
T4 sequence (Q9HD36 whole entry): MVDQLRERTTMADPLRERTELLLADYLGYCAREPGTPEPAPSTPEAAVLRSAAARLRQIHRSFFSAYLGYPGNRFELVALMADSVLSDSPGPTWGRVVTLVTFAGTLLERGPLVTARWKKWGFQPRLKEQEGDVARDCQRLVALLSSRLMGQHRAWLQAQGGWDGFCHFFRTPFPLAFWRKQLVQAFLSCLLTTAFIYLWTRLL

Procathepsin L = Procathepsin L (Homo sapiens, UniProt P07711); experiment: cathepsin L inhibitors, dose response, counter-screen for M1/M17 aminopeptidase inhibitor project, biochemical, QFRET, 1536-well (AID 2214)
Leucine aminopeptidase = molecular target: T5, Leucine aminopeptidase (Plasmodium falciparum 3D7, UniProt Q8IL11); experiment: P. falciparum M17LAP inhibitors, primary screen, biochemical, fluorogenic H-Leu-NHMec substrate, 1536-well (AID 1619); format: functional
T5 sequence (Q8IL11 whole entry): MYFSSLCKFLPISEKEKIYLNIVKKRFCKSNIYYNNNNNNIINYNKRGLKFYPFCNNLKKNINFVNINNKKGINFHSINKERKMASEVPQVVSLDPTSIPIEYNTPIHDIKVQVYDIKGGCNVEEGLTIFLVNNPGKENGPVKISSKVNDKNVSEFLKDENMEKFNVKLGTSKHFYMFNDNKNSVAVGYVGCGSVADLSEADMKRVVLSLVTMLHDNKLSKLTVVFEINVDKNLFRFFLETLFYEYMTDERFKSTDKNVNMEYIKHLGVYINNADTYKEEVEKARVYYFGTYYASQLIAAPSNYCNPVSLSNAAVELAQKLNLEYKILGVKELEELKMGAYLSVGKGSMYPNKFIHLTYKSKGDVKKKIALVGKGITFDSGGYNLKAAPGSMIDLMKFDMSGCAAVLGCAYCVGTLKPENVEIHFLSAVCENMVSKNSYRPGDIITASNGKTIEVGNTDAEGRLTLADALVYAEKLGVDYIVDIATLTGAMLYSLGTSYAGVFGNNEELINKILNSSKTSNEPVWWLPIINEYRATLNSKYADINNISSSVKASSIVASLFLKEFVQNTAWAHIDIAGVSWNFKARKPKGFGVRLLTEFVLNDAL

Aspartyl aminopeptidase = molecular target: T6, Aspartyl aminopeptidase (Plasmodium falciparum 3D7, UniProt Q8I2J3); experiment: Counterscreen for inhibitors of M1 and M17 aminopeptidases: QFRET-based biochemical high throughput dose response assay for inhibitors of the Plasmodium falciparum M18 Aspartyl Aminopeptidase (PFM18AAP). [Related PubChem assays: 1619 (Screening assay (M17LAP inhibitors).), 1445 (Screening assay (M1AAP inhibitors).)]
T6 sequence (Q8I2J3 whole entry): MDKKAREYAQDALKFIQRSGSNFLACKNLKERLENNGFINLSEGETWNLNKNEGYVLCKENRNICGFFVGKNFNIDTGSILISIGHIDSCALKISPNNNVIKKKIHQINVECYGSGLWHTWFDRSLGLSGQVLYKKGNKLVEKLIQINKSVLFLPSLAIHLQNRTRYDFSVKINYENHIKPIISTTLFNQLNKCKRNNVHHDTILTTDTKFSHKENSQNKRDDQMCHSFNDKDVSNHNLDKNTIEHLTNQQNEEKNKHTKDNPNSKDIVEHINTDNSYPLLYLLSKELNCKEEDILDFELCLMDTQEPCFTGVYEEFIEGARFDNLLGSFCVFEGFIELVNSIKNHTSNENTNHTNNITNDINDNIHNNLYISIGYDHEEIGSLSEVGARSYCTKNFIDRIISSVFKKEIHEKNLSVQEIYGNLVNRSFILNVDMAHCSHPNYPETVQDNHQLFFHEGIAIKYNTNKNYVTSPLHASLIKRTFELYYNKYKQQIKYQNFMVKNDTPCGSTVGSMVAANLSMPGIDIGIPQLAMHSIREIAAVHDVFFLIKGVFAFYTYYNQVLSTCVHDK

Cytochrome P450 2C19 = Cytochrome P450 2C19 (Homo sapiens, UniProt P33261); experiment: qHTS Assay for Inhibitors and Substrates of Cytochrome P450 2C19. [Related pubchem assays: 410 ]; format: ADME; settings: read-out: Potency
Cytochrome P450 3A4 = Cytochrome P450 3A4 (Homo sapiens, UniProt P08684); settings: Potency;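 note: confirmatory qHTS run detecting inhibitors and substrates of CYP3A4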
Cytochrome P450 2C9 = Cytochrome P450 2C9 (Homo sapiens, UniProt P11712); settings: Potency
[5] = inhibitors of intracellular T. cruzi replication, confirmation, NIH3T3 host cells, beta-gal luminescence (AID 2044); format: functional, cell-based;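 note: intracellular parasites grown in NIH/3T3 mouse fibroblasts as host cells; luminescent beta-galactosidase reporter signal from transgenic T. cruzi replicating inside host cells; inhibitors lower the luminescence signal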
[6] = cytotoxicity toward NIH3T3 fibroblasts, dose response, counter-screen, cell-based, ATP luminescence, mouse fibroblasts (AID 2010); format: functional;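 note: cells exposed to compound for about 90 hours before reading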
Prothrombin = Prothrombin (Homo sapiens, UniProt P00734); experiment: Thrombin 1536 HTS Dose Response Confirmation. [Related pubchem assays: 1046 (Thrombin 1536 HTS; hits were confirmed in this assay)]; format: functional
[7] = molecular target: Epstein-Barr nuclear antigen 1 (Epstein-Barr virus (strain B95-8) (HHV-4) (Human herpesvirus 4), UniProt P03211); experiment: EBNA-1 inhibitors, dose response, biochemical, fluorescence polarization, 1536-well (AID 2381); design: species or system human gammaherpesvirus 4;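 note: fluorescence polarization of a Cy5 DNA probe bound by EBNA-1 protein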
[8] = molecular target: Lytic switch protein BZLF1 (Epstein-Barr virus (strain B95-8) (HHV-4) (Human herpesvirus 4), UniProt P03206); experiment: EBV ZTA inhibitors, dose response, counter-screen for EBNA-1 inhibitor project, biochemical, fluorescence polarization, Epstein-Barr virus, 1536-well (AID 2377); design: species or system human gammaherpesvirus 4;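 note: fluorescence polarization of Cy5-labelled ZRE DNA probe bound by purified Zta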
[9] = Luminescence Cell-Based Dose Response HTS to Identify Inhibitors of 5'UTR Stem-Loop Driven Prion Protein mRNA Translation in H4 Neuroglioblastoma Cells. [Related pubchem assays: 1827 (Project Summary), 1813 (Primary HTS)]; format: functional
[10] = inhibitors of SNCA 5'UTR-driven reporter translation, confirmation, H4 neuroglioma cells, luminescence (AID 1988); format: functional, cell-based
[11] = inhibitors of firefly luciferase expression or activity, dose response, H4 neuroglioma cells, luminescence (AID 1990); format: functional, cell-based
Protein skinhead-1 = molecular target: T7, Protein skinhead-1 (Caenorhabditis elegans, UniProt P34707); format: functional
T7 sequence (P34707 whole entry): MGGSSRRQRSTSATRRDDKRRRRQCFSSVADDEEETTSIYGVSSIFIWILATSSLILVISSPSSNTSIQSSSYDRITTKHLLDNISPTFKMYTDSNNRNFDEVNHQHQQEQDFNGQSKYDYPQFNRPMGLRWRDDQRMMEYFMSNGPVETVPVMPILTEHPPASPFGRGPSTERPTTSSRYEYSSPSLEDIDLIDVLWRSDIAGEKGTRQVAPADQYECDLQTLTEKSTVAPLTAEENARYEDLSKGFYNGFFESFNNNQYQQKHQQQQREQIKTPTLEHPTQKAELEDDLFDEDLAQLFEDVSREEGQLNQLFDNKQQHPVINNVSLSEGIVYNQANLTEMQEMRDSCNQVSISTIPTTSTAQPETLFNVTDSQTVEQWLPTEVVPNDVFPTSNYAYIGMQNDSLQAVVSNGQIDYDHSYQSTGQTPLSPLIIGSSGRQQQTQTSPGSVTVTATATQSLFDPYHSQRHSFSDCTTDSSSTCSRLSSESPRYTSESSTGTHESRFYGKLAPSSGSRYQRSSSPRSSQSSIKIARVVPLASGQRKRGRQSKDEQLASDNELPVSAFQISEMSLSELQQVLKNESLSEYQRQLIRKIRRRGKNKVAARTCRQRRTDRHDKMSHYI

Sequence of Epstein-Barr nuclear antigen 1 (P03211 whole entry): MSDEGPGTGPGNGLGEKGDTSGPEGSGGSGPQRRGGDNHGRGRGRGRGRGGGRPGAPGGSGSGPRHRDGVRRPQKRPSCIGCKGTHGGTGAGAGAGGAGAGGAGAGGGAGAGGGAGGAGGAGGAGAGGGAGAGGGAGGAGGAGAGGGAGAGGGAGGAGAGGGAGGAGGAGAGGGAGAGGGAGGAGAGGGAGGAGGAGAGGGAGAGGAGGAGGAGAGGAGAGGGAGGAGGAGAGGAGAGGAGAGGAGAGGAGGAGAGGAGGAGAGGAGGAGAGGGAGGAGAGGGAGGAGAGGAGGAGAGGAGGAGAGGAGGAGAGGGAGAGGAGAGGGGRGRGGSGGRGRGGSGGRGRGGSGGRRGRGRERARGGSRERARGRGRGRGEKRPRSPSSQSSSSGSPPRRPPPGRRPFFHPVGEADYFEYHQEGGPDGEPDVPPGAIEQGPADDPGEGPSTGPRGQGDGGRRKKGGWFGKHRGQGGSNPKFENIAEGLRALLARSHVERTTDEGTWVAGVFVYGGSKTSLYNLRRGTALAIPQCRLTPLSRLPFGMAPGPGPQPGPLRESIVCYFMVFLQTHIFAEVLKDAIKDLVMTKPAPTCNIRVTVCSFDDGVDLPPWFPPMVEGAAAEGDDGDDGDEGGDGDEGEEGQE
Sequence of Lytic switch protein BZLF1 (P03206 whole entry): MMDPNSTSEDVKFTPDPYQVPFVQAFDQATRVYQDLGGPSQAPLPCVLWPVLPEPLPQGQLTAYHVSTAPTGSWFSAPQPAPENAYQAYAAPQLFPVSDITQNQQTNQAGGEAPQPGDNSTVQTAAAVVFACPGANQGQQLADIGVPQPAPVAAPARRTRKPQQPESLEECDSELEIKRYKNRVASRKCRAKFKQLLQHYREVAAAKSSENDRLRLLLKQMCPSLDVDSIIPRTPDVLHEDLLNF
Sequence of Procathepsin L (P07711 whole entry): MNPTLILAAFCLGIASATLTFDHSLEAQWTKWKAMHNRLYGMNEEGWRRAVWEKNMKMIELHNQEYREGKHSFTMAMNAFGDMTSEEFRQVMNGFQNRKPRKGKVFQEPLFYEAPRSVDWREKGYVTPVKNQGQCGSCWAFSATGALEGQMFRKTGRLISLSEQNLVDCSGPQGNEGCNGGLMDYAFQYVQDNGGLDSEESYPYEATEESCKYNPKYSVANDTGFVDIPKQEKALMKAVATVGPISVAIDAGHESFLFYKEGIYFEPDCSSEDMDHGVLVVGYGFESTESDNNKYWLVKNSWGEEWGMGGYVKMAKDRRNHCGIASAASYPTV
Sequence of Cytochrome P450 2C19 (P33261 whole entry): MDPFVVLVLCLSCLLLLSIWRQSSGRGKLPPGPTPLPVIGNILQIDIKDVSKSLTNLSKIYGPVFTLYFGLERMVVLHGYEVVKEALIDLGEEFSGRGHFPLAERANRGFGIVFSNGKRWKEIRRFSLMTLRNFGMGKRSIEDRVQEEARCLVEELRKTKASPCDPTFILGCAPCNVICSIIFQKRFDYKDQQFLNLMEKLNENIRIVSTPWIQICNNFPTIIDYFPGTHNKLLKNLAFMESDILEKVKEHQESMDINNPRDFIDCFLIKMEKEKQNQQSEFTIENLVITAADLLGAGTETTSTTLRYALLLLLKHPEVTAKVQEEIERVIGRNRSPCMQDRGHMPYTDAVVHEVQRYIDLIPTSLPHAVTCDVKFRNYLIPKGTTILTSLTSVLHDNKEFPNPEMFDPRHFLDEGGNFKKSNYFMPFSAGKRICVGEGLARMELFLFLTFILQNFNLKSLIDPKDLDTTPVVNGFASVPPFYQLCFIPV
Sequence of Cytochrome P450 2C9 (P11712 whole entry): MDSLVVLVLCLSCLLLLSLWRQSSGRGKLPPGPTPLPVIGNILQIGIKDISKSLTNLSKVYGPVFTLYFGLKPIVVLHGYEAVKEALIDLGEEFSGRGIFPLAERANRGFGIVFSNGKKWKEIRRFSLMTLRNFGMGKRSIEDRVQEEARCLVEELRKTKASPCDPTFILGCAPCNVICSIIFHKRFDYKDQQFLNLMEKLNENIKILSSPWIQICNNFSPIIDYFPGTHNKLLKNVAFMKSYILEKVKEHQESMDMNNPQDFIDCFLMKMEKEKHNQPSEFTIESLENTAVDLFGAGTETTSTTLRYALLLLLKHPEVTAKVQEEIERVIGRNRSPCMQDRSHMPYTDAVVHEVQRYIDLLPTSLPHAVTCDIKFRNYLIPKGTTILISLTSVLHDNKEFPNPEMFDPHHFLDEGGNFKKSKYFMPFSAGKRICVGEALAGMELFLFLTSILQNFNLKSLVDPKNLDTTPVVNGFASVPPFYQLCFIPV
Sequence of Cytochrome P450 3A4 (P08684 whole entry): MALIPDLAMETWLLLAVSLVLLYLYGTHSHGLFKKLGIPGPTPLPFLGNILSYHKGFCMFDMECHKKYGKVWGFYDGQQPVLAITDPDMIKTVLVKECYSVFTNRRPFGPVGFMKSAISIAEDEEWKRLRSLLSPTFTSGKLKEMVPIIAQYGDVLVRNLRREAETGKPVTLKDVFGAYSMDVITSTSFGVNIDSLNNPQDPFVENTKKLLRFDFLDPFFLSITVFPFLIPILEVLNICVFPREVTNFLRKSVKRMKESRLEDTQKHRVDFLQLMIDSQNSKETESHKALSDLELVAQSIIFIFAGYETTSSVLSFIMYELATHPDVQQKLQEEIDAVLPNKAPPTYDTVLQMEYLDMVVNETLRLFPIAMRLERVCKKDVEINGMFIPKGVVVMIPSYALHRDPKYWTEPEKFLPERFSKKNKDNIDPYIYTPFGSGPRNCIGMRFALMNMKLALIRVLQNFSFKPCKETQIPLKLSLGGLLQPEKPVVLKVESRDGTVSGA

CCOC(=O)c1ccc(-c2ccc(C=O)o2)cc1
AC50 [1]: 9.42 µM (active) | IC50 [2]: 10.3 µM (not active) | EC50 [3]: > 300 µM (not active) | EC50 [4]: 43.6 µM (active)

COC(=O)c1cccc(NC(=O)CSc2nc(C)cc(O)n2)c1
IC50 (Bcl-2-like protein 10): 56.8 µM (inactive) | IC50 (Procathepsin L): > 59.6 µM (not active) | IC50 (Leucine aminopeptidase): 7.51 µM (active) | IC50 (Aspartyl aminopeptidase): > 73.5 µM (not active)

COC(=O)C/C=C/C(C)C(OCc1cccc(Br)c1)C(C)C(OC)C1CCCCC1 (stereo unspecified)
AC50 (Cytochrome P450 2C19): 5.01 µM (inconclusive) | AC50 (Cytochrome P450 3A4): 3.98 µM (inconclusive)

Cc1ccc(/C=C/C2=CC3(C)CC2(C)C(c2ccc(C)cc2)CC3=O)cc1 (stereo unspecified)
AC50 (Cytochrome P450 2C19): 0.631 µM (inconclusive) | AC50 (Cytochrome P450 2C9): 3.98 µM (inconclusive)

CCOc1ccc(CNCCc2ccc3c(c2)OCO3)cc1
EC50 (cells): 0.496 µM (active) | EC50 [5]: < 0.1 µM (active) | EC50 [6]: > 60 µM (not active)

CC(=O)N1c2ccccc2N2C(c3c(C)c(C)cc(C)c3C)=NON12
IC50 (Prothrombin): 3.37 µM (active)

COc1ccc2oc(C(=O)OCC(=O)Nc3cc(S(=O)(=O)N4CCOCC4)ccc3C)c(C)c2c1
IC50 [7]: 5.76 µM (active) | IC50 [8]: > 111 µM (not active)

CCn1nnc(-c2ccccc2NC(=O)c2cccc(-n3cnnn3)c2)n1
IC50 [7]: 13.5 µM (not active) | EC50 [9]: 14.9 µM (active) | EC50 [10]: > 120 µM (not active) | IC50 [8]: > 111 µM (not active) | EC50 [11]: 22.5 µM (active)

CC(C)OCCCn1c(=S)[nH]c2cc3c(cc2c1=O)OCO3
IC50 (Prothrombin): > 50 µM (not active) | IC50 (Protein skinhead-1): > 100 µM (inactive)

Cc1ccc(CNC(=O)CCC2CCCN(Cc3c(C)nn(C(C)C)c3C)C2)o1 (stereo unspecified)
EC50 (cells): 0.011 µM (active) | EC50 [5]: < 0.1 µM (active) | EC50 [6]: > 60 µM (not active)

COc1ccc(C(C)(C)C)cc1NC(=O)C1CC=CCC1C(=O)O (stereo unspecified)
IC50 (Procathepsin L): > 59.6 µM (not active) | IC50 (Leucine aminopeptidase): 3.05 µM (active) | IC50 (Aspartyl aminopeptidase): > 73.5 µM (not active)
